Data reported in US20250002954A1, “Novel Compound, Use Thereof, and Method for Producing Same, and Compound-Containing Composition, Method for Producing 4-Trehalosamine, and Microorganism” (Microbial Chemistry Research Foundation, priority 2021, published 2025).

Key:
[1] = pH buffer effect (pH change on addition of HCl or NaOH); format: physicochemical
Protocol: Using the purified product of 4-trehalosamine obtained in the <Purification process> of production example 10, the functionality of 4-trehalosamine as buffer reagent was determined in the following manner.
A change in pH while 50 μL to 100 μL of 1 M hydrochloric acid (HCl) or 1 M sodium hydroxide (NaOH) was added to 50 mL of aqueous solution of 10 mM 4-trehalosamine (production example 10), 50 mL of aqueous solution of 10 mM trehalose, 50 mL of 10 mM tris, 50 mL of aqueous solution of 10 mM MES (2-(N-morpholino) ethanesulfonic acid), or 50 mL of aqueous solution of 10 mM HEPES (4-(2-hydroxyethyl)-1-piperazinylethane sulfonic acid) was measured with a pH meter (LAQUA F-51, manufactured by HORIBA, Ltd.).

[2] = Dynamics upon oral administration to mice (blood level, urinary and fecal excretion); format: in vivo, ICR mice; conditions: single oral dose 0.5 mg per g of body weight
Protocol: 4-trehalosamine or trehalose dissolved in saline at 0.5 mg/10 μL per g of body weight was orally administered in a single dose to ICR mice (9-week to 10-week old, female, n=5) that had been fasted overnight. The five mice on which the same treatment had been performed were placed in the same cage.
Urine and feces were regularly collected together. The collected feces were suspended in water at 200 mg/mL and centrifuged at 21,300×g for 5 minutes. The centrifuged supernatant of feces suspension and the collected urine were each diluted with methanol to 1/1,000, on which LC-MS analysis was performed under similar conditions to test example 1 and cumulative excretion of 4-trehalosamine (4TA) or trehalose (TRH) over time was calculated.
Blood was regularly collected from tail vein in an amount of around 10 μL to 20 μL, and 200 μL of methanol was added to it after measurement. After agitation on a vortex, it was centrifuged at 21,000×g for 5 minutes. The supernatant was diluted with methanol to ⅕ and LC-MS analysis was performed on it under similar conditions to test example 1. The results for 4-trehalosamine are shown in FIG. 19G and the results for trehalose are shown in FIG. 19H for each individual (n=5).

[3] = system: autophagy-related transcription factor EB (TFEB) in OVK18 and Mewo cells; assay: Elevated expression and nuclear localization of TFEB (western blotting, immunostaining); format: cell-based, human; conditions: 50 mM 4-trehalosamine, 100 μM IMCTA-C14 or 100 mM trehalose, 14 hours
Protocol: Elevated expression and nuclear localization of autophagy-related transcription factor EB (TFEB) when human ovarian cancer cells or human malignant melanoma cells were treated with 4-trehalosamine or trehalose analog were determined by western blotting and immunostaining.
Fractionation of nuclear and cytoplasm was performed in the following manner using buffer that was a modification of the buffer according to the report of Dignam et al. (J. D. Dignam et al., Nucleic Acids Res, 1983, 11 (5), p. 1475-1489).
Human ovarian cancer cells OVK18 (obtained from RIKEN BRC) and human malignant melanoma cells Mewo (JCRB0066) were each inoculated on a 6-well plate at 2×10^5 cells/2 mL/well, and cultured in DMEM culture medium at 37° C. for 48 hours. After that, as with test example 10-1, a half of the culture fluid in each well was taken, and each compound was dissolved so that the final concentration is 50 mM 4-trehalosamine, 50 µM IMCTA-C14, 100 μM IMCTA-C14, or 100 mM trehalose. After dissolving it sufficiently, the cells were returned to the original well and treated at 37° C. for 14 hours. Untreated cells without addition of the compounds were used as control. […]
The protein concentration of each fraction was measured with protein quantification reagent (XL-Bradford, integrale) and the amount of expression of TFEB in each fraction was examined by western blotting. […]

Structure (SMILES): N[C@H]1[C@H](O)[C@@H](O)[C@@H](O[C@H]2O[C@H](CO)[C@@H](O)[C@H](O)[C@H]2O)O[C@@H]1CO [4-trehalosamine]
- pH buffer effect ([1]; 10 mM aqueous solution, 1 M HCl or 1 M NaOH added): strong pH buffer effect comparable that of tris
- pKa ([1]; aqueous solution, estimated from titration): 6.99
- absorption and blood circulation after oral administration ([2]; fasted): a portion of orally administered 4-trehalosamine is absorbed and circulates in blood for a certain amount of time
- excretion ([2]; urine and feces): excreted through feces and urine in the original form, without being degraded or modified
- expression and nuclear localization of TFEB [3]: elevated expression and nuclear localization of TFEB
